The values that follow come from patent publication US7947257B2 (Archimedes Development Limited, priority 2003, dated 2011).

Molecules are shown by their SMILES.

The series is described as follows: Pharmacokinetic performance of intranasal granisetron formulations in sheep (plasma granisetron by HPLC). It counts as in vivo. To be noted: in words. As to the method:
A group of five female sheep was used, each weighing around 35 kg. The formulations were administered to a randomized cross-over design. […] This dose was provided by administering 0.4 ml of each formulation via a spray device with the dose volume being divided equally between both nostrils.
Blood samples were collected over a 360 minute period following dosing and plasma separated. […] Pharmacokinetic parameters were calculated from the plasma data.

Consider `CN1C2CCCC1CC(NC(=O)c1nn(C)c3ccccc13)C2` (stereo not shown) [Granisetron, 1-methyl-N-(9-methyl-9-azabicyclo[3.3.1]non-3-yl)-1H-indazole-3-carboxamide], for which the “absorption by the intranasal route” value was “well absorbed”.
